Assay results taken from patent US4236015A, “1-(2-Acylaminophenyl)imidazoles” (Westwood Pharmaceuticals, Inc., priority 1979, dated 1980).

How the values were obtained:
T. agelloi = experiment: Antifungal activity, agar dilution method; type: cell-based, Trichophyton ajelloi
Procedure: (§1) Various compounds of this invention display antifungal and anti-yeast activity.
(§2) In Table IX below are listed the antifungal activity of a number of compounds encompassed in the present invention. These were determined by the agar dilution method as described in Chapters 2 and 3 of Methods in Microbiology, Vol. 7B, edited by J. R. Norris and D. W. Ribbons, Academic Press, New York, 1972.

[1] = test system: Trichophyton mentagrophytes; experiment: Antifungal activity, agar dilution method; type: cell-based, Trichophyton mentagrophytes (ATCC No. 8757 and 9129)
Procedure: as §1, §2

rat paw edema = experiment: Rat paw edema assay, oral dosing; type: in vivo; settings: 4 hours
Procedure: (§3) The anti-inflammatory activity of representative compounds of this invention was determined by the rat paw edema assay both by local administration (Table XI below) and by oral dosing (Table XII below). For the oral dosing, the procedure of C. A. Winter, E. A. Risley and G. W. Nuss, Proc. Soc. Exp. Biol. Med. 111, 544 (1962) was employed with measurement taken four hours after the drug was administered. The local administration tests were carried out similarly except the irritant (carrageenan) and the test compound were injected simultaneously at time zero. Tables XI and XII report the anti-inflammatory activity of the compounds tested as % difference in the edema or swelling as compared with the control. These Tables also give the response in many instances of more than one dose level of the same drug.

Candida albicans = experiment: Antifungal activity, agar dilution method; type: cell-based, Candida albicans (ATCC No. 10231)
Procedure: as §1, §2

Candida tropicalis = experiment: Antifungal activity, agar dilution method; type: cell-based
Procedure: as §1, §2

Trichophyton rubrum = experiment: Antifungal activity, agar dilution method; type: cell-based, Trichophyton rubrum (ATCC No. 10218 and 14001)
Procedure: as §1, §2

[2] = test system: humeral or antibody response; experiment: Hemolysin test in mice; type: in vivo; settings: s.c., 50% reduction of antibody activity vs control
[3] = test system: cell-mediated immune response to the antigen, Mycobacterium tuberculosis H37Ra; experiment: Delayed hypersensitivity test; type: in vivo, mouse; settings: for D.H.S. (ED60): s.c., mice, 60% reduction of edema of cell-mediated immune response vs control
Procedure: The immunosuppressant activities of the compounds of this invention were determined via the hemolysin test in mice and by the delayed hypersensitivity test. The hemolysin test used is that described in Methods in Immunology, edited by D. H. Campbell et al, W. A. Benjamin, New York 1963 pages 172-175, and measures humeral or antibody response. The delayed hypersensitivity test measures the effect of a test compound on the ability of a subject mouse to mount a cell-mediated immune response to the antigen, Mycobacterium tuberculosis H37Ra. The mouse is sensitized to the antigen by subcutaneous administration in the base of the tail. The development of the delayed hypersensitivity response may be measured at any time beginning six days after sensitization but is usually done on the ninth day as follows: The right hind paw is injected with purified protein derivative (tuberculin) while the left hind paw (control) receives physiological saline. Both paw volumes are measured after twenty-four hours and significant increase in the volume of the right hind paw is taken as a measure of an effective delayed hypersensitivity response. All compounds were administered by the subcutaneous route.
The D.H.S. (ED60) mg./kg. s.c. value appearing in column 3 is an expression of the effectiveness of the drug in reducing the edema that accompanies the cell-mediated immune response. It is a measure of the number of milligrams per kilogram of body weight of the drug administered subcutaneously which is required to reduce the edema of the cell-mediated immune response by 60% when compared to the control.

[4] = test system: carrageenan rat paw edema; experiment: Rat paw edema assay, local administration; type: in vivo; settings: 100 mg/kg
Procedure: as §3

SMILES: Cc1ccccc1-c1nc2ccccc2n2ccnc12 [Compound 132]
- Parts Per Million Inhibitions, T. agelloi (T. agelloi): 100 Parts Per Million
- Parts Per Million Inhibitions, T. mentagrophytes [1]: 100 Parts Per Million
- Difference from Control (rat paw edema; 100 mg/kg): -76%

SMILES: Cc1cccc(-c2nc3ccccc3n3ccnc23)c1 [Compound 133]
- Parts Per Million Inhibitions, C. albicans (Candida albicans): 100 Parts Per Million
- Parts Per Million Inhibitions, C. tropicalis (Candida tropicalis): 100 Parts Per Million
- Parts Per Million Inhibitions, T. agelloi (T. agelloi): 8 Parts Per Million
- Parts Per Million Inhibitions, T. mentagrophytes [1]: 8 Parts Per Million
- Parts Per Million Inhibitions, T. rubrum (Trichophyton rubrum): 8 Parts Per Million
- HL(ED50) [2]: 0.75 mg/kg
- D.H.S. (ED60) [3]: 32 mg/kg
- Difference from Control (rat paw edema; 100 mg/kg): -17%

SMILES: Cc1ccc(-c2nc3ccccc3n3ccnc23)cc1 [Compound 134]
- Parts Per Million Inhibitions, T. agelloi (T. agelloi): 100 Parts Per Million
- Parts Per Million Inhibitions, T. mentagrophytes [1]: 16 Parts Per Million
- HL(ED50) [2]: 0.5 mg/kg
- D.H.S. (ED60) [3]: 7.2 mg/kg
- Difference from Control (rat paw edema; 100 mg/kg): -43%

SMILES: c1ccc(-c2ccc(-c3nc4ccccc4n4ccnc34)cc2)cc1 [Compound 135]
- Parts Per Million Inhibitions, T. agelloi (T. agelloi): 100 Parts Per Million
- Parts Per Million Inhibitions, T. mentagrophytes [1]: 100 Parts Per Million
- HL(ED50) [2]: 0.033 mg/kg
- D.H.S. (ED60) [3]: 0.22 mg/kg

SMILES: FC(F)(F)c1cccc(-c2nc3ccccc3n3ccnc23)c1 [Compound 136]
- Parts Per Million Inhibitions, T. mentagrophytes [1]: 100 Parts Per Million
- HL(ED50) [2]: 2.7 mg/kg
- D.H.S. (ED60) [3]: > 50 mg/kg
- Difference from Control (rat paw edema; 100 mg/kg): -9%
- Difference from Control (rat paw edema; 400 mg/kg): -25%

SMILES: CC(C)(C)c1ccc(-c2nc3ccccc3n3ccnc23)cc1 [Compound 137]
- Parts Per Million Inhibitions, T. agelloi (T. agelloi): 100 Parts Per Million
- Parts Per Million Inhibitions, T. mentagrophytes [1]: 100 Parts Per Million
- HL(ED50) [2]: < 0.125 mg/kg
- D.H.S. (ED60) [3]: 3.2 mg/kg
- Difference from Control (rat paw edema; 100 mg/kg): -26%

SMILES: COc1cc(OC)cc(-c2nc3ccccc3n3ccnc23)c1 [Compound 139]
- Parts Per Million Inhibitions, T. mentagrophytes [1]: 100 Parts Per Million
- HL(ED50) [2]: 3.0 mg/kg
- D.H.S. (ED60) [3]: > 50 mg/kg
- Difference from Control (rat paw edema; 100 mg/kg): -22%
- Difference from Control (rat paw edema; 400 mg/kg): -25%

SMILES: Clc1ccc(-c2nc3ccccc3n3ccnc23)cc1 [Compound 140]
- Parts Per Million Inhibitions, T. rubrum (Trichophyton rubrum): < 0.5 Parts Per Million
- HL(ED50) [2]: 0.26 mg/kg
- D.H.S. (ED60) [3]: 1.15 mg/kg
- % Difference from Control [4]: -78%
- Difference from Control (rat paw edema; 100 mg/kg): -35%

SMILES: CCCCCCCCCC(=O)Oc1ccc(-c2nc3ccccc3n3ccnc23)cc1 [Compound 165]
- Parts Per Million Inhibitions, T. agelloi (T. agelloi): 100 Parts Per Million
- Parts Per Million Inhibitions, T. mentagrophytes [1]: 100 Parts Per Million
- Parts Per Million Inhibitions, T. rubrum (Trichophyton rubrum): 100 Parts Per Million

SMILES: c1ccc(Oc2ccc(-c3nc4ccccc4n4ccnc34)cc2)cc1 [Compound 219]
- ED60 ([3]; Mus musculus, sc, read-out: D.H.S. (ED60)): < 32 mg/kg
